Values after ≈ are worked out from the molar mass of the structure shown. Bridge positions count the residues as written; N and C are the ends. Square brackets hold non-standard residues; d marks the D form. Peptide text beside a SMILES is read from it. d(aIle) = CC[C@H](C)[C@@H](N)C(=O)O; dNMeF = CN[C@H](Cc1ccccc1)C(=O)O
Columns and labels:
MRSA ATCC 33591 = assay: microbe, parasite or virus in culture; conditions: for times lower antibacterial activity than Arg10-teixobactin: from MIC against MRSA ATCC 33591
Procedure: were grown in Mueller Hinton broth (Oxoid) in triplicate. All incubations were at 37°C. Dilutions were carried out in triplicate. 100 µl of autoclaved Mueller Hinton broth was added to wells 2-12 in a 96-well plate. 200 µl of the peptide was added to well one at a concentration of 256 µg/mL. 100µl of peptide in well one was taken up and pipetted into well two. The mixture was then mixed via pipetting before 100µl was taken up and pipetted into well three. This process was repeated up to well 11. Once […]
peptide present. Thus, the concentrations (in µg/mL) were: 256, 128, 64, 32, 16, 8, 4, 2, 1, 0.5, 0.25 and no peptide present. Each well was then inoculated with 100µl of bacteria that had been diluted to an […]
This was repeated three times. The 96-well plates were then incubated at 37°C for 24 hours. The MIC was determined to be the lowest concentration at which there was no growth visible. […]
was repeated at an altered initial concentration of 64 µg/ml. Therefore, the new concentrations for MIC […]
(§1) VIII. MIC testing (extended panel)
(§2) Bacterial cultures were grown overnight i n Mueller-Hinton Agar (MHA) plates and adjusted to a final concentration of 10 5 – 106 CFU/ml. 100 µl of inoculum in Meuller -Hinton broth (MHB) was mixed with equal volume of peptides (dissolved in MHB) at 2x their concentration in a 96 well plate. In parallel experiments, MIC values were determined in the media containing polysorbate 80 (0 .002%, v/v) to […]

[1] = tested on: MRSA 2: MRSA DR 42412 (sputum); assay: microbe, parasite or virus in culture; conditions: MRSA 2; MHB containing polysorbate 80 (0.002%, v/v); 37 °C, 24 h
Procedure: as §1, §2
(§3) prevent non-specific adsorption of the peptides to plastic surfaces. The final peptides concentrations […]
(§4) Positive and negative controls contained 200 µl of inoculum without any peptide dissolved in broth, respectively. The 96 well plates were then incubated at 37 °C for 24 h. […]
(§5) 80. Strain information: MRSA 1: MRSA ATCC 700699, MRSA 2: MRSA DR 42412 (sputum), MRSA
(§6) 3: MRSA DM21455 (eye). […] Staphylococcus aureus ATCC

VRE 1: VRE ATCC 700802 = assay: organism not typed; conditions: VRE 1; MHB containing polysorbate 80 (0.002%, v/v); 37 °C, 24 h
Procedure: as §1, §2, §3, §4, §5, §6

VRE 2: VRE ATCC 29212 = assay: organism not typed; conditions: VRE 2; MHB containing polysorbate 80 (0.002%, v/v); 37 °C, 24 h
Procedure: as §1, §2, §3, §4, §5, §6

[2] = tested on: Staphylococcus aureus ATCC 29213; assay: microbe, parasite or virus in culture; conditions: S. aureus ATCC 29213; MHB containing polysorbate 80 (0.002%, v/v); 37 °C, 24 h
Procedure: as §1, §2, §3
(§7) Positive and negative controls contained 200 µl of inoculum without any peptide dissolved in broth, respectively. The 96 well plates were then incubated at 37 °C for 24 h.
(§8) All the experiments were performed in two independent duplicates and the MIC was determined as the […]
(§9) Minimum bactericidal concentration
(§10) The lowest concentration in which no visible colonies could be detected was taken as the MBC.
as §5, §6

[3] = tested on: MRSA 3: MRSA DM21455 (eye); assay: microbe, parasite or virus in culture; conditions: MRSA 3; MHB containing polysorbate 80 (0.002%, v/v); 37 °C, 24 h
Procedure: as §1, §2, §3, §7, §8, §9, §10, §5, §6

MRSA 1: MRSA ATCC 700699 = assay: microbe, parasite or virus in culture; conditions: MRSA 1; MHB containing polysorbate 80 (0.002%, v/v); 37 °C, 24 h; two independent duplicates
Procedure: as §1, §2, §3, §7, §8, §9, §10, §5, §6

Structure (SMILES): CC[C@H](C)[C@H](NC(=O)[C@@H](Cc1ccccc1)NC)C(=O)N[C@@H](CO)C(=O)N[C@H](CCC(N)=O)C(=O)N[C@@H](C(=O)N[C@H](C(=O)N[C@@H](CO)C(=O)N[C@H]1C(=O)N[C@@H](C)C(=O)N[C@@H](Cc2ccccc2)C(=O)N[C@@H]([C@@H](C)CC)C(=O)O[C@H]1C)[C@@H](C)CC)[C@@H](C)CC [Compound 15, Phe10-teixobactin] (H-[dNMeF]IS[dQ][d(aIle)]IS[dT]AFI; ester 8-C)
- MIC (MRSA ATCC 33591; ATCC 33591, 24 h): 2 μg mL^–1

Structure (SMILES): CC[C@H](C)[C@H](NC(=O)[C@@H](Cc1ccccc1)NC)C(=O)N[C@@H](CO)C(=O)N[C@H](C)C(=O)N[C@@H](C(=O)N[C@H](C(=O)N[C@@H](CO)C(=O)N[C@H]1C(=O)N[C@@H](C)C(=O)N[C@@H](CCCNC(=N)N)C(=O)N[C@@H]([C@@H](C)CC)C(=O)O[C@H]1C)[C@@H](C)CC)[C@@H](C)CC [Compound 4, D-Ala4-Arg10-teixobactin] (H-[dNMeF]IS[dA][d(aIle)]IS[dT]ARI; ester 8-C)
- MIC (MRSA ATCC 33591; ATCC 33591, 24 h): 2–4 μg mL^–1

Structure (SMILES): CC[C@H](C)[C@H](NC(=O)[C@@H](C)NC(=O)[C@@H](CCC(N)=O)NC(=O)[C@H](CO)NC(=O)[C@@H](NC(=O)[C@@H](Cc1ccccc1)NC)[C@@H](C)CC)C(=O)N[C@@H](CO)C(=O)N[C@H]1C(=O)N[C@@H](C)C(=O)N[C@@H](CCCNC(=N)N)C(=O)N[C@@H]([C@@H](C)CC)C(=O)O[C@H]1C [Compound 5, D-Ala5-Arg10-teixobactin] (HELM PEPTIDE1{[CN[C@H](Cc1ccccc1)C(=O)[*:2]].I.S.[dQ].[dA].I.S.[C[C@H](O[*:3])[C@@H](N[*:1])C(=O)[*:2]].A.R.I}$PEPTIDE1,PEPTIDE1,8:R3-11:R2$$$V2.0)
- MIC (MRSA ATCC 33591; ATCC 33591, 24 h): 64–128 μg mL^–1

Structure (SMILES): CC[C@H](C)[C@H](NC(=O)[C@@H](Cc1ccccc1)NC)C(=O)N[C@@H](C)C(=O)N[C@H](CCC(N)=O)C(=O)N[C@@H](C(=O)N[C@H](C(=O)N[C@@H](CO)C(=O)N[C@H]1C(=O)N[C@@H](C)C(=O)N[C@@H](CCCNC(=N)N)C(=O)N[C@@H]([C@@H](C)CC)C(=O)O[C@H]1C)[C@@H](C)CC)[C@@H](C)CC [Compound 3, Ala3-Arg10-teixobactin] (H-[dNMeF]IA[dQ][d(aIle)]IS[dT]ARI; ester 8-C)
- MIC (MRSA ATCC 33591; ATCC 33591, 24 h): 1–2 μg mL^–1

Structure (SMILES): CC[C@H](C)[C@H](NC(=O)[C@@H](Cc1ccccc1)NC)C(=O)N[C@@H](CO)C(=O)N[C@H](CCC(N)=O)C(=O)N[C@@H](C(=O)N[C@H](C(=O)N[C@@H](CO)C(=O)N[C@H]1C(=O)N[C@@H](C)C(=O)N[C@@H](CO)C(=O)N[C@@H]([C@@H](C)CC)C(=O)O[C@H]1C)[C@@H](C)CC)[C@@H](C)CC [Compound 14, Ser10-teixobactin] (H-[dNMeF]IS[dQ][d(aIle)]IS[dT]ASI; ester 8-C)
- MIC (MRSA ATCC 33591; MRSA ATCC 33591, Mueller Hinton broth (Oxoid), peptides in DMSO containing 0.002% polysorbate 80, 37°C, 24 h, triplicate): 16 μg mL^–1
- times lower antibacterial activity than Arg10-teixobactin (MRSA ATCC 33591): 8 times

Structure (SMILES): CC[C@H](C)[C@H](NC(=O)[C@@H](Cc1ccccc1)NC)C(=O)N[C@@H](CO)C(=O)N[C@H](CCC(N)=O)C(=O)N[C@@H](C(=O)N[C@H](C(=O)N[C@@H](CO)C(=O)N[C@H]1C(=O)N[C@@H](C)C(=O)N[C@H](C)C(=O)N[C@@H]([C@@H](C)CC)C(=O)O[C@H]1C)[C@@H](C)CC)[C@@H](C)CC [Compound 9, D-Ala10-teixobactin] (H-[dNMeF]IS[dQ][d(aIle)]IS[dT]A[dA]I; ester 8-C)
- MIC (MRSA ATCC 33591; ATCC 33591, 24 h): 32 μg mL^–1
- times lower antibacterial activity than Arg10-teixobactin (MRSA ATCC 33591): 16 times

Structure (SMILES): CCCCCCCCCC(=O)N[C@@H](Cc1c[nH]c2ccccc12)C(=O)N[C@H](CC(N)=O)C(=O)N[C@@H](CC(=O)O)C(=O)N[C@@H]1C(=O)NCC(=O)N[C@@H](CCCN)C(=O)N[C@@H](CC(=O)O)C(=O)N[C@H](C)C(=O)N[C@@H](CC(=O)O)C(=O)NCC(=O)N[C@H](CO)C(=O)N[C@@H]([C@H](C)CC(=O)O)C(=O)N[C@@H](CC(=O)c2ccccc2N)C(=O)O[C@@H]1C [Daptomycin, reference compound]
- MIC (with polysorbate 80) [1]: 0.5 µg/mL (≈ 0.309 µM)
- MIC (with polysorbate 80) (VRE 1: VRE ATCC 700802): 0.5 µg/mL (≈ 0.309 µM)
- MIC (with polysorbate 80) (VRE 2: VRE ATCC 29212): 0.5 µg/mL (≈ 0.309 µM)
- MIC (with polysorbate 80) [2]: 0.25 µg/mL (≈ 0.154 µM)
- MIC (with polysorbate 80) [3]: 0.5 µg/mL (≈ 0.309 µM)
- MIC (with polysorbate 80) (MRSA 1: MRSA ATCC 700699): 0.5 µg/mL (≈ 0.309 µM)

Structure (SMILES): CC[C@H](C)[C@H](NC(=O)[C@H](NC(=O)[C@@H](CCC(N)=O)NC(=O)[C@H](CO)NC(=O)[C@H](C)NC(=O)[C@@H](Cc1ccccc1)NC)[C@@H](C)CC)C(=O)N[C@@H](CO)C(=O)N[C@H]1C(=O)N[C@@H](C)C(=O)N[C@@H](CCCNC(=N)N)C(=O)N[C@@H]([C@@H](C)CC)C(=O)O[C@H]1C [Compound 2, Ala2-Arg10-teixobactin] (H-[dNMeF]AS[dQ][d(aIle)]IS[dT]ARI; ester 8-C)
- MIC (MRSA ATCC 33591; ATCC 33591, 24 h): >128 μg mL^–1

Structure (SMILES): CC[C@H](C)[C@H](NC(=O)[C@@H](Cc1ccccc1)NC)C(=O)N[C@@H](CO)C(=O)N[C@H](CCC(N)=O)C(=O)N[C@@H](C(=O)N[C@@H](C)C(=O)N[C@@H](CO)C(=O)N[C@H]1C(=O)N[C@@H](C)C(=O)N[C@@H](CCCNC(=N)N)C(=O)N[C@@H]([C@@H](C)CC)C(=O)O[C@H]1C)[C@@H](C)CC [Compound 6, Ala6-Arg10-teixobactin] (H-[dNMeF]IS[dQ][d(aIle)]AS[dT]ARI; ester 8-C)
- MIC (MRSA ATCC 33591; ATCC 33591, 24 h): >128 μg mL^–1

Structure (SMILES): CC[C@H](C)[C@H](NC(=O)[C@@H](C)NC(C)=O)C(=O)N[C@@H](CO)C(=O)N[C@H](CCC(N)=O)C(=O)N[C@@H](C(=O)N[C@H](C(=O)N[C@@H](CO)C(=O)N[C@H]1C(=O)N[C@@H](C)C(=O)N[C@@H](CCCNC(=N)N)C(=O)N[C@@H]([C@@H](C)CC)C(=O)O[C@H]1C)[C@@H](C)CC)[C@@H](C)CC [Compound 1, Ac-D-Ala1-Arg10-teixobactin]
- MIC (MRSA ATCC 33591; ATCC 33591, 24 h): >128 μg mL^–1

Structure (SMILES): CC[C@H](C)[C@H](NC(=O)[C@@H](Cc1ccccc1)NC)C(=O)N[C@@H](CO)C(=O)N[C@H](CCC(N)=O)C(=O)N[C@@H](C(=O)N[C@H](C(=O)N[C@@H](C)C(=O)N[C@H]1C(=O)N[C@@H](C)C(=O)N[C@@H](CCCNC(=N)N)C(=O)N[C@@H]([C@@H](C)CC)C(=O)O[C@H]1C)[C@@H](C)CC)[C@@H](C)CC [Compound 7, Ala7-Arg10-teixobactin] (H-[dNMeF]IS[dQ][d(aIle)]IA[dT]ARI; ester 8-C)
- MIC (MRSA ATCC 33591; ATCC 33591, 24 h): 16–32 μg mL^–1

Structure (SMILES): CC[C@H](C)[C@H](NC(=O)[C@@H](Cc1ccccc1)NC)C(=O)N[C@@H](CO)C(=O)N[C@H](CCC(N)=O)C(=O)N[C@@H](C(=O)N[C@H](C(=O)N[C@@H](CO)C(=O)N[C@H]1C(=O)N[C@@H](C)C(=O)NCC(=O)N[C@@H]([C@@H](C)CC)C(=O)O[C@H]1C)[C@@H](C)CC)[C@@H](C)CC [Compound 10, Gly10-teixobactin] (H-[dNMeF]IS[dQ][d(aIle)]IS[dT]AGI; ester 8-C)
- MIC (MRSA ATCC 33591; ATCC 33591, 24 h): 2 μg mL^–1

— paper PMC5855875, “Teixobactin analogues reveal enduracididine to be non-essential for highly potent antibacterial activity and lipid II binding” (Chemical Science, 2017)
